Among the data in patent US20250296951A1, “GPX4 Inhibitors and Senolytic Compounds and Uses Thereof” (Rubedo Life Sciences, Inc., priority 2024, published 2025) are IC50 values, retold here.

Format in all cases: cell-based
One assay deals with senescent IMR90 cells. Briefly: Senescence assay, viability of senescent IMR90 cells. The following applies: Homo sapiens, IMR-90; chemotherapy-induced senescent IMR90 cells, 24-72 hours with compound, viability by CellTiter-Glo or XTT; read-out: IMR90_SEN IC50 (Absolute IC50 average). How it is done:
(§1) Cells were maintained in DMEM media (high glucose, 4 mM L-glutamine, no sodium pyruvate) supplemented with 10% fetal bovine serum in a humidified incubator at 37° C. with 5% carbon dioxide. Senescence was induced via treatment with a sublethal concentration of chemotherapy (bleomycin, gemcitabine, doxorubicin, 5-fluorouridine), followed by a rest period without chemotherapy similarly to what is reported by others in the field (e.g., Aoshiba et al., 2003 Eur Respir J 22:436-443). Senescence was qualified by low EdU (5-ethynyl-2′-deoxyuridine) incorporation and high SA-β-Gal (senescence-associated beta-galactosidase) staining compared to proliferating untreated cells. Senescent cells were plated into 96-well plates at a density of 5-15,000 cells/well. The next day, compounds were added in duplicate across ten different concentrations spanning roughly four Log 10 units. Cells were incubated with the compounds for 24-72 hours, at which point viability is quantified using CellTiter-Glo (Promega) or XTT (R&D Systems). The viability for treated cells was determined relative to untreated control cells. The log of the compound concentration vs. normalized mean viability was a fit to a four parameters Hill function with variable slope. The bottom was constrained to be greater than zero. The X mean value for Y=50 interpolated to determine the absolute IC50. […]
In general terms: Cellular ATP, detected with luciferase, serves as a proxy for viable cell number.

The test system of a further assay is senescent NHDF cells. Briefly: Senescence assay, viability of senescent NHDF cells. The following applies: Homo sapiens; chemotherapy-induced senescent NHDF cells, 24-72 hours with compound, viability by CellTiter-Glo or XTT; read-out: NHDF_SEN IC50 (Absolute IC50 average). The procedure:
as §1

For another assay, the system named is senescent A549 cells. In words: Senescence assay, viability of senescent A549 cells. The following applies: Homo sapiens; chemotherapy-induced senescent A549 cells, 24-72 hours with compound, viability by CellTiter-Glo or XTT; read-out: A549_SEN IC50 (Absolute IC50 average). How it is done: as §1
In a further assay the test system is senescent HEPG2 cells. Briefly: Senescence assay, viability of senescent HEPG2 cells. The note with it: Homo sapiens; chemotherapy-induced senescent HEPG2 cells, 24-72 hours with compound, viability by CellTiter-Glo or XTT; read-out: HEPG2_SEN IC50 (Absolute IC50 average). The procedure: as §1

Regarding `C#CC(F)(F)[C@]1(O)CC[C@H]2[C@@H]3CCC4=CC(=O)CCC4=C3[C@@H](c3ccc(O)cc3)C[C@@]21C` [Compound 1, (1S,3aS,3bS,10R,11aS)-1-(1,1-difluoroprop-2-yn-1-yl)-1-hydroxy-10-(4-hydroxyphenyl)-11a-methyl-2H,3H,3aH,3bH,4H,5H,8H,9H,10H,11H-cyclopenta[a]phenanthren-7-one], the IC50 (in general, the concentration at which inhibition is half-maximal) with senescent IMR90 cells was 100 to 1000 nM; with senescent NHDF cells it was 100 to 1000 nM; with senescent A549 cells it was 1000 to 10000 nM; in the assay on senescent HEPG2 cells, 100 to 1000 nM.
For `C#CC(=O)[C@]1(O)CC[C@H]2[C@@H]3CCC4=CC(=O)CCC4=C3[C@@H](c3ccc(C4CC4)cc3)C[C@@]21C` [Compound 2, (8S,11R,13S,14S,17S)-11-(4-cyclopropylphenyl)-17-hydroxy-13-methyl-17-propioloyl-1,2,6,7,8,11,12,13,14,15,16,17-dodecahydro-3H-cyclopenta[a]phenanthren-3-one], the IC50 with senescent NHDF cells lay in the range of 1000 to 10000 nM.
